Test results published in patent US12624350B2, “High-throughput single-nuclei and single-cell libraries and methods of making and of using” (ILLUMINA, INC., priority 2019, dated 2026).

Legend:
Assay type in all cases: cell-based, human
[1] = test system: A549; test: pilot sci-Plex experiment (sci-RNA-seq2), four compounds; settings: A549, 24 hours, seven doses
Experimental: We exposed A549, a human lung adenocarcinoma cell line, to one of four compounds: dexamethasone (a corticosteroid agonist), nutlin-3a (a p53-Mdm2 antagonist), BMS-345541 (an inhibitor of nuclear factor kB-dependent transcription), or vorinostat [suberoylanilide hydroxamic acid (SAHA), an HDAC inhibitor], for 24 hours across seven doses in triplicate for a total of 84 drug-dose-replicate combinations and additional vehicle controls (FIG. 6A and FIG. 7A). We labeled nuclei from each well and subjected them to sci-RNA-seq2 (FIG. 7, B to D, and Table 1).
To quantify the “population average” transcriptional response of A549 cells to each of the four drugs, we modeled each gene's expression as a function of dose through generalized linear regression. […] Additionally, we evaluated whether the number of cells recovered at each concentration could be used to infer toxicity akin to traditional screens.

[2] = test system: A549; test: sci-Plex of A549 cells treated for 72 hours with one of 48 compounds; settings: A549, 72 hours
Experimental: Such heterogeneity could be explained by cells executing a defined transcriptional program asynchronously, with the dose of drug that the cells are exposed to modulating the rates of their progression through it. To test this hypothesis, we sequenced the transcriptomes of 64,440 A549 cells that were treated for 72 hours with one of 48 compounds, including many of the HDAC inhibitors from the large sci-Plex screen.
For 96-well experiments, adherent cells were trypsinized, washed with PBS and plated in tissue culture treated 96 well flat bottom plates (Thermo Fisher Scientific, cat no. 12-656-66) at 25,000 cells per well in 100 μL of media. Suspension cells were washed with PBS and plated in 96 well V-bottom tissue culture plates (Thermo Fisher Scientific, cat no. 549935) at 25,000 cells per well in 100 μL of media. Cells were allowed to recover for 24 hours before treatment with 1 μL of a 1:10 dilution of the appropriate compound or vehicle in PBS to maintain a vehicle concentration of 0.1% for all wells. […]
To organize cells treated with HDAC inhibitors into a trajectory cells were sampled to equalize the number of cells represented between the three cell lines or between treatments at 24 and 72 hrs. […] All other cells' pseudodoses was measured as the geodesic distance between their nearest principal graph node to an origin node.

[3] = test system: A549; test: large-scale sci-Plex screen (sci-RNA-seq3) of 188 compounds; settings: A549, 24 hours; for distinct transcriptional states induced by the same drug (focal enrichments in UMAP): cells from all four doses
Experimental: We exposed three well-characterized human cancer cell lines, A549 (lung adenocarcinoma), K562 (chronic myelogenous leukemia), and MCF7 (mammary adenocarcinoma), to each of these 188 compounds at four doses (10 nM, 100 nM, 1 mM, and 10 mM) in duplicate, randomizing compounds and doses across well positions in replicate culture plates (data not shown). These conditions, together with vehicle controls, accounted for 4608 of 4992 independently treated cell populations in this experiment. After treatment, we lysed cells to expose nuclei, hashed them with a specific combination of two oligos (FIG. 10A), and performed sci-RNA-seq3 (21).
Lysis was conducted in the 96 well V-bottom plate. […] For the large compound screen, 500 femtomoles of an additional oligo was used to uniquely index each 96 well treatment plate. After lysis with 3 strokes of multichannel pipette, cells were fixed by addition of 200 μL of fixation buffer (5% Paraformaldehyde, 1.25×PBS). Nuclei were then fixed on ice for 15 minutes before pooling into a trough. Nuclei were pooled by plate into a 50 mL conical tube and pelleted by centrifugation at 500×g for 5 minutes. Subsequently, cells were resuspended in 500 μL of nuclei suspension buffer (NSB; (10 mM Tris-HCl, pH 7.4, 10 mM NaCl, 3 mM MgCl2, 1% Superase RNA Inhibitor, 1% 0.2 mg/mL Ultrapure BSA)). Finally, nuclei from all plates were pooled into a single conical tube and nuclei were pelleted by centrifugation at 500×g for 5 minutes. Nuclei were then resuspended in 1 mL of NSB and flash frozen into liquid nitrogen in 100 μL aliquots. Nuclei were then stored at −80 C until further processing with sci-RNA-seq.

[4] = test system: A549, MCF7 and K562 cells; test: flow cytometry of total cellular acetylated lysines; parameters: dose or concentration left out as unconfirmed; settings: 24 hours
Experimental: A549 and MCF7 cells were seeded in 6 cm dishes at 1.6×10^6 cells per plate. K562 cells were seeded in T25 cm2 flasks at 1.6×10^6 cells per flask. […] After treatment cells were harvested as described above, pellets washed twice in PBS, resuspended in 500 μL of cold PBS and fixed by the addition of 5 mL of ice-cold ethanol while vortexing at low speed. Cells were stored at −20 C prior to processing for flow cytometry analysis. For flow cytometry, ethanol was removed and fixed cells washed twice with PBS containing 1% BSA (PBS-B) and blocked for 1 hour at room temperature. Then, blocking buffer was removed and cells were incubated in PBS containing 1% BSA and 0.1% tryton X-100 (PBS-BT) as well as a 1:500 dilution of mouse anti-acetyl-lysine antibody (cat no. ICP0390, ImmuneChem Pharmaceuticals Inc) for 2 hours at room temperature. After incubation, cells were washed twice with PBS-BT and incubated with goat anti-mouse Alexa-647 in PBS-BT for 1 hour at room temperature. Lastly, cells were washed twice with PBS-BT, once with PBS-B and resuspended in PBS-B containing 5 μg/ml Hoechst 33258 (Life Sciences Technologies) to stain the DNA. Then the levels of total acetylated-lysine and DNA content was analyzed by flow cytometry on an LSRII flow cytometer (BD Biosciences). Quantification and downstream analysis was performed using FlowJo10 (FlowJo.LLC).

[5] = test system: MCF7; test: sci-Plex of pracinostat co-treatment with acetyl-CoA precursors or enzyme inhibitors; settings: 24 hours
Text: (§1) To validate this further, we sought to shift the distribution of cells along the HDAC inhibitor trajectory by modulating cellular acetyl-CoA levels. We treated A549 and MCF7 cells with pracinostat in the presence and absence of acetyl-CoA precursors (acetate, pyruvate, or citrate) or inhibitors of enzymes (ACLY, ACSS2, or PDH) involved in replenishing acetyl-CoA pools. After treatment, cells were harvested and processed using sci-Plex and trajectories constructed for each cell line (FIGS. 39 and 40).
(§2) For 96-well experiments, adherent cells were trypsinized, washed with PBS and plated in tissue culture treated 96 well flat bottom plates (Thermo Fisher Scientific, cat no. 12-656-66) at 25,000 cells per well in 100 μL of media. Suspension cells were washed with PBS and plated in 96 well V-bottom tissue culture plates (Thermo Fisher Scientific, cat no. 549935) at 25,000 cells per well in 100 μL of media. Cells were allowed to recover for 24 hours before treatment with 1 μL of a 1:10 dilution of the appropriate compound or vehicle in PBS to maintain a vehicle concentration of 0.1% for all wells. Cells were then exposed to small molecules at the specified concentration for either 24 or 72 hours. For experiments where cells were co-treated with HDAC inhibitors and either acetate, pyruvate, citrate, ACSS2 inhibitor (EMD Millipore Inc., Cat No. 533756), ACLY inhibitor (Cayman Chemicals, BMS-303141 Cat No. 943962-47-8) or PDH inhibitor (Cayman Chemicals, Cat No. 504817), cells were treated 24 hours after plating and harvested after 24 hours. In this set of experiments, all wells contained a final concentration of 0.2% DMSO to match treatment with both the HDAC inhibitor and inhibitors of metabolic processes.
(§3) Gene expression profiles were visualized with Monocle 3, which uses UMAP to project them into a two or three dimensional space. Briefly, Monocle 3 first calculates size factors for every cell. Size factors were calculated as the log UMI counts observed in a single cell divided by the geometric mean of log UMI counts from all measured cells. After scaling each nucleus' UMI counts by its library size factor, Monocle3 adds a pseudocount of 1, and log transforms the counts. Next, these log-transformed profiles are projected onto the top 25 principal components. These PCA coordinates were transformed by Monocle 3 (using an approach similar to the removeBatchEffect( ) function in the limma package (42)) according to the model ‘˜log(UMIs)+replicate’ (FIG. 9) or ‘log(UMIs)+viability+proliferation index+replicate’. Adjusted PCA coordinates for each cell are used to initialize UMAP. Unless otherwise noted, UMAP was run with the following parameters: 50 nearest neighbors, min_dist=0.1, inter-cell distance assessed by cosine similarity. UMAP projection of cells after dual HDAC inhibition and acetyl-COA precursor supplementation or acetyl-CoA generating enzyme inhibition was performed as described with the exception that PCA initialization was performed on the top 1000 most overdispersed genes. Louvain community detection was then performed on this UMAP space using the python package ‘louvain’. Trajectory reconstruction was then performed as described in (21).

[6] = test system: A549; test: as above; settings: 24 hours
Text: as §1, §2, §3

[7] = test system: lung adenocarcinoma-derived (A549) cells; test: sciPlex-ATAC-seq chemical screen (single-cell chromatin accessibility); settings: A549, 24 hours
Experimental: Each well of a 96-well culture dish was treated for 24 hours with Nutlin-3A (p53 agonist), SAHA (broad spectrum histone deacetylase inhibitor), BMS345541 (NF-kB inhibitor), Dexamethasone (glucocorticoid receptor agonist) or a vehicle control. Moreover, we varied the dose of drug added to each well, such that the effects of each compound could be evaluated at seven different concentrations. Finally, all treatments were performed in biological triplicate (FIG. 42A). After applying unique labels to each well, cells from all conditions were pooled for parallel preparation of single cell accessible chromatin profiles.
Adherent cells grown in 96 well format were prepared by first aspirating the existing media. 50 µL of TrypLE (Termo-Fisher) was then added per well and the plate was incubated at 37 C for 15 minutes for A549. After incubation, 1504 of 1×DMEM (Gibco)+10% FBS (Gibco) was added to quench the TrypLE reaction. The 2004 volume cell suspension in each well was then transferred into a V-bottom 96 well plate, preserving the well orientations. Cells were then spun for 5 minutes at 300 g to pellet cells before aspirating media. Cell pellets were washed with 100 μL 1×DPBS and then pelleted at 300 g for 5 minutes. […]
Pooled, hash-labeled nuclei were thawed on ice, inspected for nuclei integrity, counted and further adjusted to 2.5 million nuclei/mL if necessary. […]

**Q.** `COc1ccc(C2=N[C@@H](c3ccc(Cl)cc3)[C@@H](c3ccc(Cl)cc3)N2C(=O)N2CCNC(=O)C2)c(OC(C)C)c1` [nutlin-3a] was tested. Which “drug-specific pathways revealed by gene ontology analysis of differentially expressed genes” value [1] did it give?
**A.** Its value is “p53 signaling”.

**Q.** How did the “focal concentrations of cells in coembedded UMAP projection, 72 hours versus 24 hours” value [2] turn out when `Cc1nc(-c2cccnc2)sc1C(=O)Nc1ccccc1-c1cn2c(CN3CCOCC3)csc2n1` [SRT1024] was run?
**A.** Its value is “new focal concentrations of cells at 72 hours”.

**Q.** How did the “heterogeneity of cell response along the HDAC inhibitor pseudodose trajectory at each dose” value [3] turn out when `CCCCc1nc2cc(/C=C/C(=O)NO)ccc2n1CCN(CC)CC` [pracinostat] was run?
**A.** The value was “homogeneous responses”.

**Q.** And the acetylated lysine levels [4]?
**A.** The acetylated lysine levels was “markedly increased acetylated lysine levels”.

**Q.** How did the acetylated lysine levels [4] turn out when `CN(C)Cc1c(C(=O)NCCOc2ccc(C(=O)NO)cc2)oc2ccccc12` [abexinostat] was run?
**A.** The acetylated lysine levels was “markedly increased acetylated lysine levels”.

**Q.** `C/C(=C\c1csc(C)n1)[C@@H]1C[C@@H]2O[C@@H]2CCC[C@H](C)[C@H](O)[C@@H](C)C(=O)C(C)(C)[C@@H](O)CC(=O)O1` [epothilone A] was tested. Which “distinct transcriptional states induced by the same drug (focal enrichments in UMAP)” value [3] did it give?
**A.** The value was “associated with three such focal enrichments”.

**Q.** How did the “shift of pracinostat treated cells along the HDAC inhibitor trajectory” value [5] turn out when `CC(=O)O` [acetate] was run?
**A.** The value was “capable of blocking pracinostat treated cells from reaching the end of the HDAC inhibitor trajectory”.

**Q.** And the “shift of pracinostat treated cells along the HDAC inhibitor trajectory” value [6]?
**A.** Its value is “capable of blocking pracinostat treated cells from reaching the end of the HDAC inhibitor trajectory”.

**Q.** `CC1(C)O[C@@H]2C[C@H]3[C@@H]4CCC5=CC(=O)C=C[C@]5(C)[C@@]4(F)[C@@H](O)C[C@]3(C)[C@]2(C(=O)CO)O1` [triamcinolone acetonide] was tested. Which “share of the cells of one small UMAP cluster that were treated with the compound” value ([3]; cluster 18, Fisher's exact test FDR<1%) did it give?
**A.** The value was 95%.

**Q.** How did the “shift of pracinostat treated cells along the HDAC inhibitor trajectory” value [5] turn out when `COCCNC(=O)Nc1ccc2nc(-c3cccs3)c(-c3cccs3)nc2c1` [ACSS2 inhibitor] was run?
**A.** Its value is “shifted cells farther along the HDAC inhibitor trajectory”.

**Q.** And the “shift of pracinostat treated cells along the HDAC inhibitor trajectory” value [6]?
**A.** The value was “no such shift was observed”.

**Q.** What does the source list for `O=C(CCCCCCC(=O)Nc1ccccc1)NO` [SAHA, suberoylanilide hydroxamic acid]?
**A.** accessibility of non-coding sites upstream of the COPS7A locus [7]: dose dependent accessibility; dosage-dependent change of the chromatin regulatory landscape ([7]; seven concentrations): increasingly altered regulatory landscapes with higher doses

**Q.** For `C/C(=C\c1csc(C)n1)[C@@H]1C[C@@H]2O[C@]2(C)CCC[C@H](C)[C@H](O)[C@@H](C)C(=O)C(C)(C)[C@@H](O)CC(=O)O1` [epothilone B], which “distinct transcriptional states induced by the same drug (focal enrichments in UMAP)” value [3] is on record?
**A.** The value was “associated with three such focal enrichments”.

**Q.** How did the “shift of pracinostat treated cells along the HDAC inhibitor trajectory” value [5] turn out when `COc1ccc(-c2ccccc2)cc1NS(=O)(=O)c1cc(Cl)cc(Cl)c1O` [ACLY inhibitor] was run?
**A.** The value was “shifted cells farther along the HDAC inhibitor trajectory”.

**Q.** What about the “shift of pracinostat treated cells along the HDAC inhibitor trajectory” value [6] of the same compound?
**A.** Its value is “no such shift was observed”.

**Q.** `O=C(O)CC(O)(CC(=O)O)C(=O)O` [citrate] was tested. Which “shift of pracinostat treated cells along the HDAC inhibitor trajectory” value [5] did it give?
**A.** The value was “capable of blocking pracinostat treated cells from reaching the end of the HDAC inhibitor trajectory”.

**Q.** And the “shift of pracinostat treated cells along the HDAC inhibitor trajectory” value [6]?
**A.** The value was “capable of blocking pracinostat treated cells from reaching the end of the HDAC inhibitor trajectory”.
